Read-outs that look alike come from different tables or passages of the source.
Biological target: T1, HCV NS3-4A serine protease (full-length NS3-4A protein, genotype 1a, strain HCV-1) (Hepatitis C virus genotype 1a, UniProt P26664)
T1 construct: using the full-length NS3-4A protein (genotype 1a, strain HCV-1)
Assay: HCV NS3-4A protease assay
Format: biochemical
Protocol: The inhibitory activity of certain compounds of Table A against HCV NS3-4A serine protease is determined in a homogenous assay using the full-length NS3-4A protein (genotype 1a, strain HCV-1) and a commercially available internally-quenched fluorogenic peptide substrate as described by Taliani, M., et al. 1996 Anal. Biochem. 240:60-67, which is incorporated by reference in its entirety.

T1 sequence (P26664 1658-1711): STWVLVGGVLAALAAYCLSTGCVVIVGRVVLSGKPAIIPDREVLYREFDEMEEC
T1 sequence (P26664 1027-1657): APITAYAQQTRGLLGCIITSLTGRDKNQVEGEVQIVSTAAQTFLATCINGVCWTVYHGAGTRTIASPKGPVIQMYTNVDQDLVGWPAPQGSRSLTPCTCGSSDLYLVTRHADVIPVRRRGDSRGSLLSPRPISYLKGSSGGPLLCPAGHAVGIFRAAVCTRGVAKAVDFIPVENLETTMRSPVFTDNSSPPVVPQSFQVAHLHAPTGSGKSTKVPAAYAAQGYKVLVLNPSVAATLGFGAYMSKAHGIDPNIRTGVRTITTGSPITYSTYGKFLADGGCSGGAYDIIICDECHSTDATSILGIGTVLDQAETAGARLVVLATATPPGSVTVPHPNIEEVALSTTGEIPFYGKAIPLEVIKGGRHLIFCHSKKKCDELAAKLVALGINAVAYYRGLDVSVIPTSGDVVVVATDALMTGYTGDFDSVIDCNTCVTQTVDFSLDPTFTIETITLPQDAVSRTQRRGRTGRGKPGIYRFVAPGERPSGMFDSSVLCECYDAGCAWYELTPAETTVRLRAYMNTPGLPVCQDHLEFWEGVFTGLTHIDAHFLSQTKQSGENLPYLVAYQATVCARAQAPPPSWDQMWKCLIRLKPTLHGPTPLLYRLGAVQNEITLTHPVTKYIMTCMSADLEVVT

| IC50 (read-out: Protease IC50) [nM] | Compound | IC50 (Protease IC50) [nM] |
| --- | --- | --- |
| – | C=C[C@@H]1C[C@]1(NC(=O)[C@@H]1C[C@@]2(CN1C(=O)[C@@H](NC(=O)[C@@H](NC(=O)[C@@H]1CCCCN1CCF)C(C)(C)C)C(C)(C)C)C(C)(C)C21CCC1)C(=O)NS(=O)(=O)c1cccc2cc[nH]c12 [Compound 14, (5R,8S)-7-[(2S)-2-{[(2S)-2-({[(2S)-1-(2-fluoroethyl)piperidin-2-yl]carbonyl}amino)-3,3-dimethylbutanoyl]amino}-3,3-dimethylbutanoyl]-N-{(1R,2S)-1-[(1H-indol-7-ylsulfonyl)carbamoyl]-2-vinylcyclopropyl}-10,10-dimethyl-7-azadispiro[3.0.4.1]decane-8-carboxamide] | 6.5 |
| – | CC(C)N1CCCC[C@H]1C(=O)N[C@H](C(=O)N[C@H](C(=O)N1C[C@]2(CC1C(=O)NC1(C(=O)NS(=O)(=O)C3CC3)CC1(C)C)C(C)(C)C21CCC1)C(C)(C)C)C(C)(C)C (stereo partly drawn) [Compound 15, (5R)-N-{1-[(cyclopropylsulfonyl)carba-moyl]-2,2-dimethylcyclopropyl}-7-[(2S)-2-{[(2S)-2-({[(2S)-1-isopropylpiperidin-2-yl]carbonyl}amino)-3,3-dimethylbutanoyl]amino}-3,3-dimethylbutanoyl]-10,10-dimethyl-7-azadispiro[3.0.4.1]decane-8-carboxamide] | 3700 |
| 10 | C=C[C@@H]1C[C@]1(NC(=O)[C@@H]1C[C@@]2(CN1C(=O)[C@@H](NC(=O)N[C@H](CN1CCN(C)CC1)C(C)(C)C)C(C)(C)C)C(C)(C)C21CCC1)C(=O)NS(=O)(=O)C1CC1 [Compound 16, (5R,8S)-N-{(1R,2S)-1-[(cyclopropylsulfonyl)carba-moyl]-2-vinylcyclopropyl}-7-{(2S)-2-[({(1S)-2,2-dimethyl-1-[(4-methylpiperazin-1-yl)methyl]propyl}carbamoyl)amino]-3,3-dimethylbutanoyl}-10,10-dimethyl-7-azadispiro[3.0.4.1]decane-8-carboxamide] | – |
| – | C=C[C@@H]1C[C@]1(NC(=O)[C@@H]1C[C@@]2(CN1C(=O)[C@@H](NC(=O)[C@@H](NC(=O)[C@@H]1CCCCN1C(C)C)C(C)(C)C)C(C)(C)C)C(C)(C)C21CCC1)C(=O)NS(=O)(=O)c1ccccc1 [Compound 17, (5R,8S)-7-[(2S)-2-{[(2S)-2-({[(2S)-1-isopropylpiperidin-2-yl]carbonyl}amino)-3,3-dimethylbutanoyl]amino}-3,3-dimethylbutanoyl]-10,10-dimethyl-N-{(1R,2S)-1-[(phenylsulfonyl)carbamoyl]-2-vinylcyclopropyl}-7-azadispiro[3.0.4.1]decane-8-carboxamide] | 4.5 |
| 3 | C=C[C@@H]1C[C@]1(NC(=O)[C@@H]1C[C@@]2(CN1C(=O)[C@@H](NC(=O)N[C@H](CN(C)S(=O)(=O)c1ccccn1)C(C)(C)C)C(C)(C)C)C(C)(C)C21CCC1)C(=O)NS(=O)(=O)C1CC1 [Compound 18, (5R,8S)-N-{(1R,2S)-1-[(cyclopropylsulfonyl)carba-moyl]-2-vinylcyclopropyl}-7-[(2S)-2-({[(1S)-2,2-dimethyl-1-{[methyl(pyridin-2-ylsulfonyl)amino]methyl}prop-yl]carbamoyl}amino)-3,3-dimethylbutanoyl]-10,10-dimethyl-7-azadispiro[3.0.4.1]decane-8-carboxamide] | – |
| 350 | C=C[C@@H]1C[C@]1(NC(=O)[C@@H]1C[C@@]2(CN1C(=O)[C@@H](NC(=O)C1CCCN(C(C)=O)C1)C(C)(C)C)C(C)(C)C21CCC1)C(=O)NS(=O)(=O)C1CC1 (stereo partly drawn) [Compound 19, (5R,8S)-7-[(2S)-2-{[(1-acetylpiperidin-3-yl)carbonyl]amino}-3,3-dimethylbutanoyl]-N-{(1R,2S)-1-[(cyclopropylsulfonyl)carba-moyl]-2-vinylcyclopropyl}-10,10-dimethyl-7-azadispiro[3.0.4.1]decane-8-carboxamide] | – |
| 2 | C=C[C@@H]1C[C@]1(NC(=O)[C@@H]1C[C@@]2(CN1C(=O)[C@@H](NC(=O)N[C@H](CN(C)S(=O)(=O)N(C)C)C(C)(C)C)C(C)(C)C)C(C)(C)C21CCC1)C(=O)NS(=O)(=O)C1CC1 [Compound 20, (5R,8S)-N-{(1R,2S)-1-[(cyclopropylsulfonyl)carba-moyl]-2-vinylcyclopropyl}-7-[(2S)-2-({[(1S)-1-({[(dimethylamino)sulfonyl] (methyl)amino}methyl)-2,2-dimethylpropyl]carbamoyl}amino)-3,3-dimethylbutanoyl]-10,10-dimethyl-7-azadispiro[3.0.4.1]decane-8-carboxamide] | – |
| – | C=C[C@@H]1C[C@]1(NC(=O)[C@@H]1C[C@@]2(CN1C(=O)[C@@H](NC(=O)[C@@H](NC(=O)[C@@H]1CCCCN1C(C)C)C(C)(C)C)C(C)(C)C)C(C)(C)C21CCC1)C(=O)NS(=O)(=O)Cc1ccccc1 [Compound 22, (5R,8S)-N-{(1R,2S)-1-[(benzylsulfonyl)carbamoyl]-2-vinylcyclopropyl}-7-[(2S)-2-{[(2S)-2-({[(2S)-1-isopropylpiperidin-2-yl]carbonyl}amino)-3,3-dimethylbutanoyl]amino}-3,3-dimethylbutanoyl]-10,10-dimethyl-7-azadispiro[3.0.4.1]decane-8-carboxamide] | 14 |
| – | CC(C)N1CCCC[C@H]1C(=O)N[C@H](C(=O)N[C@H](C(=O)N1C[C@]2(C[C@H]1C(=O)NC1(C(=O)NS(=O)(=O)C3CC3)CC=CC1)C(C)(C)C21CCC1)C(C)(C)C)C(C)(C)C [Compound 23, (5R,8S)-N-{1-[(cyclopropylsulfonyl)carba-moyl]cyclopent-3-en-1-yl}-7-[(2S)-2-{[(2S)-2-({[(2S)-1-isopropylpiperidin-2-yl]carbonyl}amino)-3,3-dimethylbutanoyl]amino}-3,3-dimethylbutanoyl]-10,10-dimethyl-7-azadispiro[3.0.4.1]decane-8-carboxamide] | 1250 |
| – | CC(C)(C)[C@H](NC(=O)[C@@H]1CCCCN1CCF)C(=O)N[C@H](C(=O)N1C[C@]2(C[C@H]1C(=O)NC1(C(=O)NS(=O)(=O)C3CC3)CC=CC1)C(C)(C)C21CCC1)C(C)(C)C [Compound 24, (5R,8S)-N-{1-[(cyclopropylsulfonyl)carba-moyl]cyclopent-3-en-1-yl}-7-[(2S)-2-{[(2S)-2-({[(2S)-1-(2-fluoroethyl)piperidin-2-yl]carbonyl}amino)-3,3-dimethylbutanoyl]amino}-3,3-dimethylbutanoyl]-10,10-dimethyl-7-azadispiro[3.0.4.1]decane-8-carboxamide] | 5250 |
| – | CC(C)N1CCCCC1C(=O)N[C@H](C(=O)N[C@H](C(=O)N1C[C@]2(C[C@H]1C(=O)N[C@]1(C(=O)NS(=O)(=O)C3CC3)CC=CCC1)C(C)(C)C21CCC1)C(C)(C)C)C1CCCCC1 (stereo partly drawn) [Compound 25, (5R,8S)-7-[(2S)-2-{[(2S)-2-cyclohexyl-2-{[(1-isopropylpiperidin-2-yl)carbonyl]amino}acetyl]amino}-3,3-dimethylbutanoyl]-N-{(1S)-1-[(cyclopropylsulfonyl)carba-moyl]cyclohex-3-en-1-yl}-10,10-dimethyl-7-azadispiro[3.0.4.1]decane-8-carboxamide] | 550 |

Source: patent US20110182850A1, “ORGANIC COMPOUNDS AND THEIR USES” (priority 2009, published 2011)
